Results reported in patent EP1137645B1, “ALPHA-METHYLBENZYL-CONTAINING THIOUREA INHIBITORS OF HERPES VIRUSES CONTAINING A […] GROUP” (Wyeth, priority 1998, dated 2000).
≈ marks a conversion by molar mass, not a printed value. Like-named read-outs stand apart in the source and are kept apart here.

Tests used:
VZV strain Ellen = assay: VZV antiviral (ELISA) assay; format: cell-based
Outline: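 HFF cells infected with VZV Ellen at multiplicity below 0.1 overnight, then mixed infected/uninfected cells seeded with compound in DMEM/2% FBS and incubated three days at 37°C, 5% CO2.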

HSV- I = assay: HSV antiviral (ELISA) assay; format: cell-based; conditions: for IC50: read-out: IC50 (ug/ml) HSV
Outline: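 IC50 from fluorescence versus untreated control in a cell ELISA: anti-glycoprotein D antibody, β-galactosidase-conjugated secondary, 4-methyl umbelliferone read at 365/450 nm. Vero cells (2% FBS DMEM) received compound 30 min pre-infection with HSV-1 at MOI 0.006, fixed ~24 h post-infection.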

[1] = system: HCMV recombinant mutant virus whose genome contains the prokaryotic beta-glucuronidase gene; assay: microbe, parasite or virus in culture; format: cell-based, human cytomegalovirus; conditions: for IC50: Human betaherpesvirus 5, Fibroblast; for IC50 ug/ml HCMV: human foreskin fibroblasts
Outline: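 Antiviral IC50 estimated from reduced reporter activity across compound amounts: lysates prepared 96 h after infection were tested with p-nitrophenyl- or methylumbelliferyl-glucuronide. Cells were human foreskin fibroblasts, infected alongside inhibitor with HCMV (e.g. RV145) expressing viral promoter-driven beta-glucuronidase.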

[2] = Human alphaherpesvirus 3, HFF, read-out: % inhibition 10 ug/ml VZV
[3] = Human alphaherpesvirus 3, HFF, read-out: IC50 (ug/ml) VZV
[4] = read-out: IC50 ug/ml HCMV, HCMV, human foreskin fibroblasts
[5] = Human alphaherpesvirus 3, HFF, read-out: IC50 (ug/ml) VZV, VZV strain Ellen, HFF cells, ELISA
[6] = Human alphaherpesvirus 3, VZV strain Ellen, HFF cells, ELISA, read-out: IC50 (ug/ml) VZV
[7] = Human alphaherpesvirus 3, read-out: % inhibition 10 ug/ml VZV, 10 ug/ml, VZV strain Ellen, HFF cells, ELISA
[8] = VZV strain Ellen, HFF cells, ELISA

Compound	inhibition at 10 µg/mL (VZV strain Ellen; [2]) [%]	IC50 (VZV strain Ellen; [3]) [µg/mL]	IC50 (HSV- I; HSV- I, Vero cells, ELISA) [µg/mL]	IC50 [1, 4] [µg/mL]	also measured
COc1cc(OC)c(NC(=S)Nc2ccc(NC(=O)c3cccc(F)c3F)cc2)cc1Cl [Example 186, N-{4-[3-(5-Chloro-2,4-dimethoxy-phenyl)-thioureido]-phenyl}-2,3-difluoro-benzamide]	52	> 10	0.2 (≈ 0.418 µM)	> 10	
COc1cccc(C(C)NC(=S)Nc2ccc(NC(=O)c3ccccc3F)cc2)c1 (centres unmarked) [Example 789, 2-Fluoro-N-(4-{3-[1-(3-methoxy-phenyl)-ethyl]-thioureido}-phenyl)-benzamide]				> 2.2	IC50 (VZV strain Ellen; [5]): 1.5 µg/mL (≈ 3.54 µM); IC50 (HSV- I; Vero): > 10 µg/mL
CC(NC(=S)Nc1ccc(NC(=O)c2ccc(F)cc2)cc1)c1ccc(F)cc1 (centres unmarked) [Example 801, 4-Fluoro-N-(4-{3-[1-(4-fluoro-phenyl)-ethyl]-thioureido}-phenyl)-benzamide]			> 10		IC50 (VZV strain Ellen; [6]): > 7.5 µg/mL; IC50 ([1]; read-out: IC50 ug/ml HCMV): > 10 µg/mL
COc1cc(OC)c(NC(=S)Nc2ccc(NC(=O)c3cccc(OCCN4CCOCC4)c3)cc2)cc1Cl [Example 258, N-{4-[3-(5-Chloro-2,4-dimethoxy-phenyl)-thioureido]-phenyl}-3-(2-morpholin-4-yl-ethoxy)-benzamide]	92	1.5 (≈ 2.63 µM)	1.5 (≈ 2.63 µM)	5 (≈ 8.76 µM)	
CC(NC(=S)Nc1ccc(NC(=O)c2ccc(C#N)cc2)cc1)c1ccc(F)cc1 (centres unmarked) [Example 1022, 4-Cyano-N-(4-{3-[1-(4-fluoro-phenyl)-ethyl]-thioureido}-phenyl)-benzamide]			> 10		IC50 (VZV strain Ellen; [6]): 1.5 µg/mL (≈ 3.58 µM); IC50 ([1]; read-out: IC50 ug/ml HCMV): 4.4 µg/mL (≈ 10.5 µM)
COc1cc(OC)c(NC(=S)Nc2ccc(NC(=O)c3cccc(O)c3)cc2)cc1Cl [Example 254, N-{4-[3-(5-Chloro-2,4-dimethoxy-phenyl)-thioureido]-phenyl}-3-hydroxy-benzamide]	110	4 (≈ 8.73 µM)	0.9 (≈ 1.97 µM)	4 (≈ 8.73 µM)	
CC(NC(=S)Nc1ccc(NC(=O)c2ccccc2F)cc1)c1ccccc1F (centres unmarked) [Example 778, 2-Fluoro-N-(4-{3-[1-(2-fluoro-phenyl)-ethyl]-thioureido}-phenyl)-benzamide]			> 10		IC50 (VZV strain Ellen; [6]): 3 µg/mL (≈ 7.29 µM); IC50 ([1]; read-out: IC50 ug/ml HCMV): 0.8 µg/mL (≈ 1.94 µM)
CC(NC(=S)Nc1ccc(NC(=O)c2ccccc2F)cc1)c1cc2ccccc2o1 (centres unmarked) [Example 1002, N-{4-[3-(1-Benzofuran-2-yl-ethyl)-thioureido]-phenyl}-2-fluoro-benzamide]				2.1 (≈ 4.84 µM)	IC50 (VZV strain Ellen; [5]): 0.08 µg/mL (≈ 0.185 µM); IC50 (HSV- I; Vero): > 10 µg/mL
CCOC(=O)COc1cccc(C(=O)Nc2ccc(NC(=S)Nc3cc(Cl)c(OC)cc3OC)cc2)c1 [Example 221, (3-{4-[3-(5-Chloro-2,4-dimethoxy-phenyl)-thioureido]-phenylcarbamoyl}-phenoxy)-acetic acid ethyl ester]	17	> 10	> 10	> 10	
CC(NC(=S)Nc1ccc(NC(=O)c2cc3ccccc3o2)cc1)c1ccc(Br)cc1 (centres unmarked) [Example 982, Benzofuran-2-carboxylic acid (4-{3-[1-(4-bromo-phenyl)-ethyl]-thioureido}-phenyl)-amide]		0.1 (≈ 0.202 µM)	> 10	1.3 (≈ 2.63 µM)	
COc1cc(OC)c(NC(=S)Nc2ccc(NC(=O)c3cccc(F)c3)cc2)cc1Cl [Example 117, N-{4-[3-(5-Chloro-2,4-dimethoxy-phenyl)-thioureido]-phenyl}-3-fluoro-benzamide]	15	> 10	0.3 (≈ 0.652 µM)	3 (≈ 6.52 µM)	
O=C(Nc1ccc(NC(=S)Nc2cccc(O)c2)cc1)c1ccccc1F [Example 475, 2-Fluoro-N-{4-[3-(3-hydroxy-phenyl)-thioureido]-phenyl}-benzamide]			5 (≈ 13.1 µM)		inhibition at 10 µg/mL (VZV strain Ellen; [7]): 28%; IC50 (VZV strain Ellen; [6]): > 10 µg/mL; IC50 ([1]; read-out: IC50 ug/ml HCMV): > 10 µg/mL
COc1cc(OC)c(NC(=S)Nc2ccc(NC(=O)c3cccc(N(C)C)c3)cc2)cc1Cl [Example 136, N-{4-[3-(5-Chloro-2,4-dimethoxy-phenyl)-thioureido]-phenyl}-3-dimethylamino-benzamide]	40	> 10	1 (≈ 2.06 µM)	10 (≈ 20.6 µM)	
CC(NC(=S)Nc1ccc(NC(=O)c2ccccc2F)cc1)c1ccccc1 (centres unmarked) [Example 589, 2-Fluoro-N-{4-[3-(1-phenyl-ethyl)-thioureido]-phenyl}-benzamide]			> 10		IC50 (VZV strain Ellen; [6]): 0.36 µg/mL (≈ 0.915 µM); IC50 ([1]; read-out: IC50 ug/ml HCMV): 7 µg/mL (≈ 17.8 µM)
COc1cc(OC)c(NC(=S)Nc2ccc(NC(=O)c3ccc4ccccc4c3)cc2)cc1Cl [Example 156, Naphthalene-2-carboxylic acid {4-[3-(5-chloro-2,4-dimethoxy-phenyl)-thioureido]-phenyl}-amide]	17	> 10	2 (≈ 4.07 µM)	10 (≈ 20.3 µM)	
N-{4-[3-(3-Chloro-4-methoxy-phenyl)-thioureido]-phenyl}-4-methoxy-benzamide [Example 821]					% inhibition 10 ug/ml VZV (VZV strain Ellen; 10 ug/ml, VZV strain Ellen, HFF cells, ELISA): 55%; IC50 (ug/ml) VZV (VZV strain Ellen; [8]): >10 µg/mL; IC50 (ug/ml) HSV (HSV- I; HSV- I, Vero cells, ELISA): 0.15 µg/mL; IC50 ug/ml HCMV [1]: 1 µg/mL
COc1ccc(NC(=S)Nc2ccc(NC(=O)c3ccccc3F)cc2)cc1Br [Example 811, N-{4-[3-(3-Bromo-4-methoxy-phenyl)-thioureido]-phenyl}-2-fluoro-benzamide]				3.1 (≈ 6.54 µM)	IC50 (VZV strain Ellen; [5]): > 7.5 µg/mL; IC50 (HSV- I; Vero): 0.8 µg/mL (≈ 1.69 µM)
CC(NC(=S)Nc1ccc(NC(=O)c2ccccc2F)cc1)c1cccc(Br)c1 (centres unmarked) [Example 780, N-(4-{3-[1-(3-Bromo-phenyl)-ethyl]-thioureido}-phenyl)-2-fluoro-benzamide]				1 (≈ 2.12 µM)	IC50 (VZV strain Ellen; [5]): 1.2 µg/mL (≈ 2.54 µM); IC50 (HSV- I; Vero): > 10 µg/mL
COc1ccc(NC(=S)Nc2ccc(NC(=O)c3ccccc3OC)cc2)cc1Cl [Example 818, N-{4-[3-(3-Chloro-4-methoxy-phenyl)-thioureido]-phenyl}-2-methoxy-benzamide]	32	> 10	1.2 (≈ 2.72 µM)	4 (≈ 9.05 µM)	
O=C(Nc1ccc(NC(=S)Nc2ccc(Cl)c(Cl)c2)cc1)c1ccccc1F [Example 912, N-{4-[3-(3,4-Dichloro-phenyl)-thioureido]-phenyl}-2-fluoro-benzamide]	21	> 10	8 (≈ 18.4 µM)	> 10	
COc1cc(OC)c(NC(=S)Nc2ccc(NC(=O)c3cccc(NC(C)=O)c3)cc2)cc1Cl [Example 134, 3-Acetylamino-N-{4-[3-(5-chloro-2,4-dimethoxy-phenyl)-thioureido]-phenyl}-benzamide]	50	> 10	> 10	4 (≈ 8.02 µM)	
O=C(Nc1ccc(NC(=S)NC(CO)c2ccccc2)cc1)c1ccccc1F (centres unmarked) [Example 797, 2-Fluoro-N-{4-[3-(2-hydroxy-1-phenyl-ethyl)-thioureido]-phenyl}-benzamide]			> 10		IC50 (VZV strain Ellen; [6]): 1.7 µg/mL (≈ 4.15 µM); IC50 ([1]; read-out: IC50 ug/ml HCMV): > 10 µg/mL
N-(4-{3-[1-(4-Bromo-phenyl)-ethyl]-thioureido}-phenyl)-2-methoxy-benzamide [Example 1019]					IC50 (ug/ml) VZV (VZV strain Ellen; [8]): 0.05 µg/mL; IC50 (ug/ml) HSV (HSV- I; HSV- I, Vero cells, ELISA): >10 µg/mL; IC50 ug/ml HCMV [1]: 2.6 µg/mL
O=C(Nc1ccc(NC(=S)Nc2cccc(CO)c2)cc1)c1ccccc1F [Example 476, 2-Fluoro-N-{4-[3-(3-hydroxymethyl-phenyl)-thioureido]-phenyl}-benzamide]			10 (≈ 25.3 µM)		inhibition at 10 µg/mL (VZV strain Ellen; [7]): 21%; IC50 (VZV strain Ellen; [6]): > 10 µg/mL; IC50 ([1]; read-out: IC50 ug/ml HCMV): > 10 µg/mL
CN(C)c1ccc(NC(=S)Nc2ccc(NC(=O)c3ccccc3F)cc2)cc1Cl [Example 852, N-{4-[3-(3-Chloro-4-dimethylamino-phenyl)-thioureido]-phenyl}-2-fluoro-benzamide]	80	6.5 (≈ 14.7 µM)	4 (≈ 9.03 µM)	0.6 (≈ 1.35 µM)	
Cc1nc2cc(NC(=S)Nc3ccc(NC(=O)c4ccccc4F)cc3)ccc2[nH]1 [Example 497, 2-Fluoro-N-{4-[3-(2-methyl-1H-benzoimidazol-5-yl)-thioureido]-phenyl}-benzamide]			> 10		inhibition at 10 µg/mL (VZV strain Ellen; [7]): 10%; IC50 (VZV strain Ellen; [6]): > 10 µg/mL; IC50 ([1]; read-out: IC50 ug/ml HCMV): 10 µg/mL (≈ 23.8 µM)
O=C(CN1CCCCCC1)Nc1ccc(NC(=S)Nc2ccc(NC(=O)c3ccccc3F)cc2)cc1Cl [Example 423, N-(4-{3-[4-(2-Azepan-1-yl-acetylamino)-3-chloro-phenyl]-thioureido}-phenyl)-2-fluoro-benzamide]	87	0.9 (≈ 1.62 µM)	4 (≈ 7.22 µM)	1 (≈ 1.8 µM)	
COc1cc(OC)c(NC(=S)Nc2ccc(NC(=O)c3ccccc3F)c(C(=O)c3ccccc3)c2)cc1Cl [Example 293, N-{2-Benzoyl-4-[3-(5-chloro-2,4-dimethoxy-phenyl)-thioureido]-phenyl}-2-fluoro-benzamide]	2	> 10	> 50	> 10	
